What all share (assay): NCI-60 cell line screen, 48 h
In experiment [1] the test system is A498.
Experiment [2] has as its system CCRF-CEM.
Experiment [3] relates to EKVX.
Experiment [4] has as its system HCT-15.
The test system of experiment [5] is HL-60.
The test system of experiment [6] is HOP-62.
Experiment [7] has as its system LOX IMVI.
Experiment [8] has as its system MCF7.
The test system of experiment [9] is MDA-MB-231.
For experiment [10], the system named is MDA-N.
The subject of experiment [11] is MOLT-4.
Experiment [12] relates to NCI-H226.
Experiment [13] has as its system NCI-H522.
Experiment [14] concerns OVCAR-3.
The test system of experiment [15] is OVCAR-5.
In experiment [16] the test system is PC-3.
For experiment [17], the system named is SF-268.
In experiment [18] the test system is SF-539.
Experiment [19] concerns SK-MEL-28.
The test system of experiment [20] is TK-10.

Each structure is given as a SMILES string.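 Each compound was tested at five concentrations against cells in 96-well plates for 48 hours. The concentration for 50% growth inhibition is given as GI50.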 Calls of active or inactive are those of the source. Cut-off read from the data, not from the text of the source: active = GI50 up to about 1.1 µM and inactive = higher. A value given as a limit tells only on which side of the number the result lay.

For the compound `CC(=O)c1cc2c(s1)C(=O)c1ccsc1C2=O`, the GI50 in experiment [1] is 7.24 µM (inactive); in experiment [2], 0.335 µM (active); in experiment [3], 1.87 µM (inactive); in experiment [4] it was 0.179 µM; in experiment [5] it was 0.0442 µM (active); in [6], 0.491 µM (active). Besides, the GI50 in experiment [7] is 0.0414 µM (active); in experiment [8], 0.293 µM (active); in experiment [9], 0.327 µM (active); in [10] it was 0.0802 µM (active); in experiment [11], 0.438 µM (active); in experiment [12], 1.6 µM (inactive). Moreover, the GI50 in [13] is 0.16 µM (active); in experiment [14], 0.22 µM (active); in [15] it was 0.74 µM (active); in experiment [16], 0.458 µM (active); in experiment [17], 0.301 µM (active); in experiment [18], 0.27 µM (active). Also, the GI50 in [19] is 0.185 µM (active); in experiment [20], 1.97 µM (inactive).
On to `CN(C)CCCNC(=O)CNC(=O)c1cc(NC(=O)c2cc(NC(=O)c3cc(NC(=O)CCNC(=O)c4cc(NC(=O)c5cc(NC(=O)c6nccn6C)cn5C)cn4C)cn3C)cn2C)cn1C`, for which the GI50 in [1] is > 100 µM (inactive); in experiment [2] it was 24.5 µM (inactive); in experiment [3] it was > 100 µM (inactive); in [4], above 100 µM; in experiment [5], 43 µM (inactive); in experiment [6], > 100 µM (inactive). For the same compound, the GI50 in experiment [7] was > 100 µM (inactive); in [8] it was > 100 µM (inactive); in experiment [9], > 100 µM (inactive); in [10] it was > 100 µM (inactive); in [11], 20.8 µM (inactive); in [12], > 100 µM (inactive). The GI50 in [13], in experiment [14], in experiment [15], in experiment [16], in experiment [17] and in [18] was > 100 µM (inactive) throughout. The GI50 in experiment [19] and in experiment [20] was > 100 µM (inactive) in each case.

For the origin of these results see ChEMBL document CHEMBL1201862, “PubChem BioAssay data set” (2004).
